From US4939177A, “Use of avarol for the control of AIDS and ARC” (Merz + Co. GmbH & Co., priority 1986, dated 1990)
Like-named read-outs stand apart in the source and are kept apart here.

Key:
[1] = format: in vivo, rat; conditions: for Percentage of Radioactivity in Blood: rat
normal B-lymphocytes = conditions: cited from earlier work

**Q.** Which “Percentage of Radioactivity in Blood” value ([1]; i.v. 10 mg/kg, 1 hour, 100% = 10 minutes after injection) does the source give for `CC1=CCC[C@H]2[C@](C)(Cc3cc(O)ccc3O)[C@@H](C)CC[C@]12C` [Avarol, 2-[(1R)-1,2,3,4,4a,7,8,8aα-octahydro-1β,2β,4aβ,5-tetramethyl-1-naphthylmethyl]-1,4-benzenediol] here?
**A.** The value was 96%.

**Q.** And the “Percentage of Radioactivity in Blood” value ([1]; i.v. 10 mg/kg, 6 hours, 100% = 10 minutes after injection)?
**A.** Its value is 88%.

**Q.** And the “Percentage of Radioactivity in Blood” value ([1]; i.v. 10 mg/kg, 12 hours, 100% = 10 minutes after injection)?
**A.** Its value is 72%.

**Q.** And the “Percentage of Radioactivity in Blood” value ([1]; i.v. 10 mg/kg, 24 hours, 100% = 10 minutes after injection)?
**A.** Its value is 43%.

**Q.** What about the “Percentage of Radioactivity in Blood” value ([1]; i.v. 10 mg/kg, 48 hours, 100% = 10 minutes after injection) of the same compound?
**A.** Its value is 26%.

**Q.** And the “Percentage of Radioactivity in Blood” value ([1]; i.v. 20 mg/kg, 1 hour, 100% = 10 minutes after injection)?
**A.** The value was 92%.

**Q.** What about the “Percentage of Radioactivity in Blood” value ([1]; i.v. 20 mg/kg, 12 hours, 100% = 10 minutes after injection) of the same compound?
**A.** Its value is 75%.

**Q.** And the “Percentage of Radioactivity in Blood” value ([1]; i.v. 20 mg/kg, 24 hours, 100% = 10 minutes after injection)?
**A.** The value was 39%.

**Q.** And the “Percentage of Radioactivity in Blood” value ([1]; i.v. 20 mg/kg, 48 hours, 100% = 10 minutes after injection)?
**A.** Its value is 21%.

**Q.** And the “Percentage of Radioactivity in Blood” value ([1]; in vivo, iv, 20 mg/kg)?
**A.** The value was 83.

**Q.** What about the half-life ([1]; rats, i.v.) of the same compound?
**A.** The half-life was “approximately 22 hours”.

**Q.** And the “concentration inhibiting [^3 H] dThd-incorporation rate by 50%” value (normal B-lymphocytes)?
**A.** The value was 1.6 to 1.9 µg/mL.
